Source: patent US9096596B2 (Janssen Pharmaceutica NV, priority 2013, dated 2015)
pIC50, pKi: −log10 of the molar value. Like-named read-outs stand apart in the source and are kept apart here.

Columns and labels:
P2X7 [1] = target: T1, P2X7 (Homo sapiens (Human), UniProt Q99572); assay: Ca2+ flux (FLIPR) in 1321N1 cells expressing recombinant human P2X7 channel; format: cell-based; settings: 250 μM BzATP, Calcium-4 dye
Protocol: 1321N1 cells expressing the recombinant human, rat or mouse P2X7 channel was cultured in HyQ DME/(HyClone/Dulbecco's Modified Eagle Medium) high glucose supplemented with 10% Fetal Bovine Serum (FBS) and appropriate selection marker. Cells were seeded at a density of 25000 cells/well (96-well clear bottom black walled plates) in 100 μl volume/well. On the day of the experiment, cell plates were washed with assay buffer, containing (in mM): 130 NaCl, 2 KCl, 1 CaCl2, 1 MgCl2, 10 HEPES, 5 glucose; pH 7.40 and 300 mOs. After the wash, cells were loaded with the Calcium-4 dye (Molecular Device) and incubated in the dark for 60 minutes. Test compounds were prepared at 250× the test concentration in neat DMSO. Intermediate 96-well compound plates were prepared by transferring 1.2 μL of the compound into 300 μL of assay buffer. A further 3× dilution occurred when transferring 50 μL/well of the compound plate to 100 μL/well in the cell plate. Cells were incubated with test compounds and dye for 30 minutes. […] The fluorescence change was measured 180 seconds after adding the agonist.

rat P2X7 [2] = target: T2, rat P2X7 (Rattus norvegicus (Rat), UniProt Q64663); assay: Radioligand binding, rat P2X7-1321N1 cell membranes, tracer tritiated A-804598
Protocol: (§1) On the day of the experiment, cell membrane preparations were made according to standard published methods. […] The compound can be prepared as described in the literature. […] The assay was terminated by filtration (GF/B filters pre-soaked with 0.3% PEI) and washed with washing buffer (Tris-HCl 50 mM). The IC50 generated in the binding assay was corrected for tracer concentration and affinity of the tracer to derive at the affinity (Ki) of the test compounds.

rat P2X7 [3] = target: T2, rat P2X7; assay: Ca2+ flux (FLIPR) in 1321N1 cells expressing recombinant rat P2X7 channel; format: cell-based; settings: 250 μM BzATP, Calcium-4 dye
Method in brief: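 1321N1 cells stably expressing P2X7 were loaded with Calcium-4 dye for 60 min in HEPES-buffered saline (pH 7.40, 1 mM CaCl2, 1 mM MgCl2), then preincubated with test compounds for 30 min. Fluorescence change was read 180 s after agonist addition.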

P2X7 [4] = target: T1, P2X7; assay: Radioligand binding, human P2X7-1321N1 cell membranes, tracer tritiated A-804598
Protocol: as §1

P2X7 [5] = target: T1, P2X7; assay: P2X7 antagonism in human whole blood (IL-1β release, ELISA); format: cell-based; settings: IL-1β release in human blood, LPS 30 ng/ml + Bz-ATP 1 mM
Protocol: Human blood was collected using a blood donor program. […] Cells were incubated for an additional 1.5 hours.

P2X7 [6] = target: T1, P2X7; assay: P2X7 antagonism in human PBMCs (IL-1β release, ELISA); format: cell-based; settings: test compound 10 μM, IL-1β release in human PBMCs, LPS 30 ng/ml + Bz-ATP 0.5 mM, read-out: PBMC 10 μM (% control)
Protocol: Human blood was collected using a blood donor program. […] Cells were incubated for an additional 1.5 hours. […] In Table 2, when the data cell has been left blank, it is intended to mean that the compound was not tested in that assay.

[7] = rat P2X7-1321N1 membranes, 1 hour at 4° C., IC50 corrected for tracer concentration and affinity
[8] = human P2X7-1321N1 membranes, 1 hour at 4° C., IC50 corrected for tracer concentration and affinity

T1 sequence (Q99572 whole entry): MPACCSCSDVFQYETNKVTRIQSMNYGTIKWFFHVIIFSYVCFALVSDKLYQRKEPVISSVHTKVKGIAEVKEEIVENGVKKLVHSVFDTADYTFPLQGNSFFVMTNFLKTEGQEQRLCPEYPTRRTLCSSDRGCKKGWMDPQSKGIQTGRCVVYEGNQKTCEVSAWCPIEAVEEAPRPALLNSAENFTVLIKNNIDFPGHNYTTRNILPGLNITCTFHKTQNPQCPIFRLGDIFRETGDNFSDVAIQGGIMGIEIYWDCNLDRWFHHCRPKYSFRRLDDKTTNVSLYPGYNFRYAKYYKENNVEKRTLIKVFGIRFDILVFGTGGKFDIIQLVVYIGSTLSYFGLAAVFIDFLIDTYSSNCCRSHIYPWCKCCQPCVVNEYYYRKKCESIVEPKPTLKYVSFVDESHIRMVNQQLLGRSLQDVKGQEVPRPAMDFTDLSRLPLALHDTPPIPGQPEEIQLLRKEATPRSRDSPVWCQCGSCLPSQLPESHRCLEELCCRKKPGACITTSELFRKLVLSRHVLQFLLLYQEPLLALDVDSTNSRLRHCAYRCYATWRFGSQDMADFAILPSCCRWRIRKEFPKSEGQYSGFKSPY
T2 sequence (Q64663 whole entry): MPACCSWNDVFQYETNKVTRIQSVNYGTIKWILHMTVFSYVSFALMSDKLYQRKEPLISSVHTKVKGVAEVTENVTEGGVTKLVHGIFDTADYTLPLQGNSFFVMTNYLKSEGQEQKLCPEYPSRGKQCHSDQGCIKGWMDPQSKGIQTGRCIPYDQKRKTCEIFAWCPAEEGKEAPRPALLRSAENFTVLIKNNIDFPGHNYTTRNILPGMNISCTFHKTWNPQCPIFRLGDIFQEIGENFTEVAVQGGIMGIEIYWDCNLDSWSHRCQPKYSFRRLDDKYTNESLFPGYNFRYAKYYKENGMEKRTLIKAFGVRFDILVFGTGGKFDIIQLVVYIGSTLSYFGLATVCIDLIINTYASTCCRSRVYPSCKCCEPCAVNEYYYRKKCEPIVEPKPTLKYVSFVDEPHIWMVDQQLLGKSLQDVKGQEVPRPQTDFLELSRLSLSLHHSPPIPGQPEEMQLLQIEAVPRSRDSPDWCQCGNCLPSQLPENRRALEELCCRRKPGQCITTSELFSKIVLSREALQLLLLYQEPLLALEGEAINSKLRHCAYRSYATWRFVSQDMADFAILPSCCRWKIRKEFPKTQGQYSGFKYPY

Row | pIC50 (P2X7 [1]) | pKi (rat P2X7 [2]) | pIC50 (rat P2X7 [3]) | pKi (P2X7 [4]) | pKi (rat P2X7 [2]; [7]) | pKi (P2X7 [4]; [8]) | pIC50 (P2X7 [5]) | remaining activity at 10 µM (P2X7 [6]) [%] | Structure (SMILES)
1 | 7.53 | 8.52 | 8.01 | 7.50 |  |  |  |  | COCCn1ccc(-c2nc(C)nc3c2C[C@@H](C)N(C(=O)c2cccc(C(F)(F)F)c2Cl)C3)n1 (single isomer, unassigned) [Example 128, (R*)-(2-chloro-3-(trifluoromethyl)phenyl)(4-(1-(2-methoxyethyl)-1H-pyrazol-3-yl)-2,6-dimethyl-5,6-dihydropyrido[3,4-d]pyrimidin-7(8H)-yl)methanone]
2 | 7.44 |  | 5.49 |  | 6.60 | 7.02 |  |  | O=C(c1cccc(Cl)c1Cl)N1CCc2c(ncnc2-c2ccccc2)C1 [Example 2, 7-[(2,3-Dichlorophenyl)carbonyl]-4-phenyl-5,6,7,8-tetrahydropyrido[3,4-d]pyrimidine]
3 | 7.51 | 8.46 | 7.89 | 7.60 |  |  |  |  | Cc1nc2c(c(-c3ccn(CCF)n3)n1)C[C@@H](C)N(C(=O)c1cccc(C(F)(F)F)c1Cl)C2 (single isomer, unassigned) [Example 124, (R*)-(2-chloro-3-(trifluoromethyl)phenyl)(4-(1-(2-fluoroethyl)-1H-pyrazol-3-yl)-2,6-dimethyl-5,6-dihydropyrido[3,4-d]pyrimidin-7(8H)-yl)methanone]
4 | 7.80 |  | 6.80 |  | 8.00 | 7.30 |  |  | O=C(c1cccc(C(F)(F)F)c1Cl)N1CCc2c(ncnc2-c2cscn2)C1 [Example 43, 7-{[2-Chloro-3-(trifluoromethyl)phenyl]carbonyl}-4-(1,3-thiazol-4-yl)-5,6,7,8-tetrahydropyrido[3,4-d]pyrimidine]
5 | 7.00 |  | 7.60 |  | 7.75 | 7.30 |  |  | Cc1nc2c(c(-c3[nH]ncc3C(F)(F)F)n1)CCN(C(=O)c1cccc(C(F)(F)F)c1Cl)C2 [Example 39, 7-{[2-Chloro-3-(trifluoromethyl)phenyl]carbonyl}-2-methyl-4-[4-(trifluoromethyl)-1H-pyrazol-5-yl]-5,6,7,8-tetrahydropyrido[3,4-d]pyrimidine]
6 |  |  |  |  |  |  | 5.95 |  | O=C(c1cccc(Cl)c1Cl)N1CCc2c(ncnc2-n2nccn2)C1 [Example 23, 7-[(2,3-Dichlorophenyl)carbonyl]-4-(2H-1,2,3-triazol-2-yl)-5,6,7,8-tetrahydropyrido[3,4-d]pyrimidine]
7 | 7.60 |  | 5.50 |  | 7.50 | 7.20 |  |  | O=C(c1cccc(Cl)c1Cl)N1CCc2c(ncnc2-c2cnccn2)C1 [Example 14, 7-[(2,3-Dichlorophenyl)carbonyl]-4-pyrazin-2-yl-5,6,7,8-tetrahydropyrido[3,4-d]pyrimidine]
8 | 7.06 |  | 5.70 |  | 7.70 | 7.20 |  |  | Cc1nc2c(c(-c3ccn[nH]3)n1)CCN(C(=O)c1cccc(Cl)c1Cl)C2 [Example 34, 7-[(2,3-Dichlorophenyl)carbonyl]-2-methyl-4-(1H-pyrazol-5-yl)-5,6,7,8-tetrahydropyrido[3,4-d]pyrimidine]
9 | 7.55 |  | 6.41 |  |  | 6.70 |  | -1.7 | Cc1nc2c(c(-c3ccn[nH]3)n1)CC(C)N(C(=O)c1ccc(F)cc1F)C2 (centres unmarked) [Example 93, (2,4-difluorophenyl)(2,6-dimethyl-4-(1H-pyrazol-5-yl)-5,6-dihydropyrido[3,4-d]pyrimidin-7(8H)-yl)methanone]
10 | 7.99 |  | 7.12 |  | 8.30 | 7.70 |  |  | O=C(c1cccc(C(F)(F)F)c1Cl)N1CCc2c(ncnc2-c2ccn[nH]2)C1 [Example 18, (4-(1H-pyrazol-5-yl)-5,6-dihydropyrido[3,4-d]pyrimidin-7(8H)-yl)(2-chloro-3-(trifluoromethyl)phenyl)methanone]
11 | 7.32 |  | 6.57 |  | 7.90 | 7.40 |  |  | Cc1nc2c(c(-c3[nH]ncc3F)n1)CCN(C(=O)c1cccc(C(F)(F)F)c1Cl)C2 [Example 35, 7-{[2-Chloro-3-(trifluoromethyl)phenyl]carbonyl}-4-(4-fluoro-1H-pyrazol-5-yl)-2-methyl-5,6,7,8-tetrahydropyrido[3,4-d]pyrimidine]
12 | 7.76 |  | 5.96 |  |  | 7.20 |  | 12.9 | O=C(c1cccc(C(F)(F)F)c1Cl)N1CCc2c(ncnc2-c2cccc(F)n2)C1 [Example 130, (2-chloro-3-(trifluoromethyl)phenyl)(4-(6-fluoropyridin-2-yl)-5,6-dihydropyrido[3,4-d]pyrimidin-7(8H)-yl)methanone]
13 | 6.45 |  | 6.09 |  |  | 7.30 |  | 0.6 | O=C(c1cccc(C(F)(F)F)c1F)N1CCc2c(ncnc2-c2ccn[nH]2)C1 [Example 111, (4-(1H-pyrazol-5-yl)-5,6-dihydropyrido[3,4-d]pyrimidin-7(8H)-yl)(2-fluoro-3-(trifluoromethyl)phenyl)methanone]
14 | 7.50 |  | 5.20 |  | 7.30 | 7.10 |  |  | Cc1c(C(=O)N2CCc3c(ncnc3-c3cnccn3)C2)cccc1C(F)(F)F [Example 15, 7-{[2-Methyl-3-(trifluoromethyl)phenyl]carbonyl}-4-pyrazin-2-yl-5,6,7,8-tetrahydropyrido[3,4-d]pyrimidine]
15 | 8.11 |  | 8.25 |  |  | 7.60 |  | 44.7 | CC1Cc2c(ncnc2-c2ccn[nH]2)CN1C(=O)c1cccc(C(F)(F)F)c1Cl (centres unmarked) [Example 62, (2-chloro-3-(trifluoromethyl)phenyl)(6-methyl-4-(1H-pyrazol-5-yl)-5,6-dihydropyrido[3,4-d]pyrimidin-7(8H)-yl)methanone]
16 |  |  | 7.17 |  | 8.10 |  |  |  | O=C(c1cccc(C(F)(F)F)c1Cl)N1CCc2c(ncnc2-n2nccn2)C1 [Example 108, 7-{[2-Chloro-3-(trifluoromethyl)phenyl]carbonyl}-4-(2H-1,2,3-triazol-2-yl)-5,6,7,8-tetrahydropyrido[3,4-d]pyrimidine]
17 | 6.38 |  | < 5.00 |  | 7.21 | 7.43 |  |  | O=C(c1cccc(Cl)c1Cl)N1CCc2c(ncnc2-c2ccccn2)C1 [Example 11, 7-[(2,3-Dichlorophenyl)carbonyl]-4-pyridin-2-yl-5,6,7,8-tetrahydropyrido[3,4-d]pyrimidine]
18 | 7.78 |  | 6.79 |  |  | 7.20 |  | -9.6 | O=C(c1cccc(C(F)(F)F)c1Cl)N1CCc2c(nc(C3CC3)nc2-c2ccn[nH]2)C1 [Example 57, 7-{[2-Chloro-3-(trifluoromethyl)phenyl]carbonyl}-2-cyclopropyl-4-(1H-pyrazol-5-yl)-5,6,7,8-tetrahydropyrido[3,4-d]pyrimidine]
19 | 7.92 |  | 6.31 |  |  | 7.90 |  | 2.2 | O=C(c1cccc(C(F)(F)F)c1Cl)N1CCc2c(ncnc2-n2cnnc2)C1 [Example 109, (4-(4H-1,2,4-triazol-4-yl)-5,6-dihydropyrido[3,4-d]pyrimidin-7(8H)-yl)(2-chloro-3-(trifluoromethyl)phenyl)methanone]
20 | 7.30 |  | 5.73 |  |  | 6.20 |  | 3.8 | Cc1nc2c(c(-c3ccn[nH]3)n1)CC(C)N(C(=O)c1ccc(Cl)cc1)C2 (centres unmarked) [Example 96, (4-chlorophenyl)(2,6-dimethyl-4-(1H-pyrazol-5-yl)-5,6-dihydropyrido[3,4-d]pyrimidin-7(8H)-yl)methanone]
21 |  |  |  |  | 7.50 | 7.10 |  |  | Cc1nc2c(c(-c3[nH]ncc3F)n1)CCN(C(=O)c1cccc(Cl)c1Cl)C2 [Example 36, 7-[(2,3-Dichlorophenyl)carbonyl]-4-(4-fluoro-1H-pyrazol-5-yl)-2-methyl-5,6,7,8-tetrahydropyrido[3,4-d]pyrimidine]
